Literature values as cited in patent publication US20180256623A1, “COMPOSITIONS AND METHOD FOR REGULATING ADIPOSE TISSUE LIPOLYSIS, INSULIN-RESISTANCE, AND HYPERGLYCEMIA” (University of Virginia Patent Foundation, priority 2015, published 2018).

Experiments:
hormone-sensitive lipase = target: T1, hormone-sensitive lipase (Homo sapiens, UniProt Q05469); details: cited from earlier work
T1 sequence (Q05469 1-1076): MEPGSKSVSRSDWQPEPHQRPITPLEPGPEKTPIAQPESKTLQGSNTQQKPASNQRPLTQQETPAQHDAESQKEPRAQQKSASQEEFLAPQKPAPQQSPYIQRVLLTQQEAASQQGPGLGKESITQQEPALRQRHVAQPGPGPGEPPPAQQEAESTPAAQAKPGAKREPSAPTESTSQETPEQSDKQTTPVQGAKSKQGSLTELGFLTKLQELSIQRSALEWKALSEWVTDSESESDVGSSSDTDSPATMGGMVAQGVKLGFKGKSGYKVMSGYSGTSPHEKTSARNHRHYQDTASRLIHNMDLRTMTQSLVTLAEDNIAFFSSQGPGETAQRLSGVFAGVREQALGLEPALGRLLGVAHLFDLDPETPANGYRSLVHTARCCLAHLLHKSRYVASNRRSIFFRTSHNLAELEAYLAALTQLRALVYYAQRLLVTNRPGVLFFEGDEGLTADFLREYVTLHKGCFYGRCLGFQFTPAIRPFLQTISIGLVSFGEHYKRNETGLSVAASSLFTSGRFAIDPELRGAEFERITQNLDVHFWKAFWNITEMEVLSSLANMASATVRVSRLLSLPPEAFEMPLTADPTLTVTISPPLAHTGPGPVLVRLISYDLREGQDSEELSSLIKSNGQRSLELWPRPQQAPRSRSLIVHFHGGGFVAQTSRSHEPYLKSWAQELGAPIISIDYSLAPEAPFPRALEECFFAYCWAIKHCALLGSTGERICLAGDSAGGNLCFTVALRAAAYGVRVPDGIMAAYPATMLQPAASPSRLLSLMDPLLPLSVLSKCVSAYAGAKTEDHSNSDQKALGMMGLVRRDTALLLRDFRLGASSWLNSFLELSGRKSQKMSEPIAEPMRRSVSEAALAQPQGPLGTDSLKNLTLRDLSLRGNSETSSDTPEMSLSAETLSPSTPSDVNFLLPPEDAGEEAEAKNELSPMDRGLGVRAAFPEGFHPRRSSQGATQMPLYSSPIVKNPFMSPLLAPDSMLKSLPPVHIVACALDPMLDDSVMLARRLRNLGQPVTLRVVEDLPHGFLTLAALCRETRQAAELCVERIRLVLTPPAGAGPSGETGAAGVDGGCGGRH

PNPLA6 = target: T2, PNPLA6 (Homo sapiens, UniProt Q8IY17); details: cited from earlier work
T2 sequence (Q8IY17 1-1375): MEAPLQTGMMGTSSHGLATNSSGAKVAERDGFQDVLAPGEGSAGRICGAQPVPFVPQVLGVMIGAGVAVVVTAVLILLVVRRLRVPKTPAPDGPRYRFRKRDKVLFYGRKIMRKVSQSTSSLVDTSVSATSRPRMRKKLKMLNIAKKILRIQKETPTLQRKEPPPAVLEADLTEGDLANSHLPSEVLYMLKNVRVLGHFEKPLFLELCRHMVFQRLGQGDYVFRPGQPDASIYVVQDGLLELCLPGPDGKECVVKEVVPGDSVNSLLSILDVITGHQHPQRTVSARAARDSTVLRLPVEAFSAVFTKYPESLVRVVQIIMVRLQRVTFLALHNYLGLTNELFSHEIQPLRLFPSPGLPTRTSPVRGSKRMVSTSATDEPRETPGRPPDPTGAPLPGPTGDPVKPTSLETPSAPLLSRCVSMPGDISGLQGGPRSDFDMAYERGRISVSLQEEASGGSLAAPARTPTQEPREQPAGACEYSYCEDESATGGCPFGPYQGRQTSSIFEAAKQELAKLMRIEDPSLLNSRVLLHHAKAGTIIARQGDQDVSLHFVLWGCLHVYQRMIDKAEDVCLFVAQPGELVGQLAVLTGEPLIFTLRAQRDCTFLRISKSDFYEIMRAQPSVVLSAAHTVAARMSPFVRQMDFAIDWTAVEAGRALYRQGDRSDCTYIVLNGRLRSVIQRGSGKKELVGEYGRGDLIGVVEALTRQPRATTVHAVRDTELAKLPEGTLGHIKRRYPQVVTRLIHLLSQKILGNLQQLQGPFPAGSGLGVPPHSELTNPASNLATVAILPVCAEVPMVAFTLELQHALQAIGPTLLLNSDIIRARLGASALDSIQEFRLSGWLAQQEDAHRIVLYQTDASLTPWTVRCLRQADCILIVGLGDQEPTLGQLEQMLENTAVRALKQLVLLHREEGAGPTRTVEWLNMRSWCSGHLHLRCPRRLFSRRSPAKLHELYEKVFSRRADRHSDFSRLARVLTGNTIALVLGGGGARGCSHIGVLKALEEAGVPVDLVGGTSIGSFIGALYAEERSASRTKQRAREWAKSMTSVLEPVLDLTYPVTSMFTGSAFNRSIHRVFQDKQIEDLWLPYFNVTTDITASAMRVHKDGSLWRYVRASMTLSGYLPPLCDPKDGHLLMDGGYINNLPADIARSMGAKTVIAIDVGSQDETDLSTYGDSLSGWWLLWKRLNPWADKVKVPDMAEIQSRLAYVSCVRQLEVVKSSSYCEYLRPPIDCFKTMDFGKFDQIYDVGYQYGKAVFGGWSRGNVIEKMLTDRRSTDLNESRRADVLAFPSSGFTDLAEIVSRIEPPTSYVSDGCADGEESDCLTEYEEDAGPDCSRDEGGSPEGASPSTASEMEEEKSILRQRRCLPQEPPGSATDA

PNPLA7 = PNPLA7 (Homo sapiens, UniProt Q6ZV29); details: cited from earlier work
PNPLA7, sequence (Q6ZV29 whole entry, species assumed): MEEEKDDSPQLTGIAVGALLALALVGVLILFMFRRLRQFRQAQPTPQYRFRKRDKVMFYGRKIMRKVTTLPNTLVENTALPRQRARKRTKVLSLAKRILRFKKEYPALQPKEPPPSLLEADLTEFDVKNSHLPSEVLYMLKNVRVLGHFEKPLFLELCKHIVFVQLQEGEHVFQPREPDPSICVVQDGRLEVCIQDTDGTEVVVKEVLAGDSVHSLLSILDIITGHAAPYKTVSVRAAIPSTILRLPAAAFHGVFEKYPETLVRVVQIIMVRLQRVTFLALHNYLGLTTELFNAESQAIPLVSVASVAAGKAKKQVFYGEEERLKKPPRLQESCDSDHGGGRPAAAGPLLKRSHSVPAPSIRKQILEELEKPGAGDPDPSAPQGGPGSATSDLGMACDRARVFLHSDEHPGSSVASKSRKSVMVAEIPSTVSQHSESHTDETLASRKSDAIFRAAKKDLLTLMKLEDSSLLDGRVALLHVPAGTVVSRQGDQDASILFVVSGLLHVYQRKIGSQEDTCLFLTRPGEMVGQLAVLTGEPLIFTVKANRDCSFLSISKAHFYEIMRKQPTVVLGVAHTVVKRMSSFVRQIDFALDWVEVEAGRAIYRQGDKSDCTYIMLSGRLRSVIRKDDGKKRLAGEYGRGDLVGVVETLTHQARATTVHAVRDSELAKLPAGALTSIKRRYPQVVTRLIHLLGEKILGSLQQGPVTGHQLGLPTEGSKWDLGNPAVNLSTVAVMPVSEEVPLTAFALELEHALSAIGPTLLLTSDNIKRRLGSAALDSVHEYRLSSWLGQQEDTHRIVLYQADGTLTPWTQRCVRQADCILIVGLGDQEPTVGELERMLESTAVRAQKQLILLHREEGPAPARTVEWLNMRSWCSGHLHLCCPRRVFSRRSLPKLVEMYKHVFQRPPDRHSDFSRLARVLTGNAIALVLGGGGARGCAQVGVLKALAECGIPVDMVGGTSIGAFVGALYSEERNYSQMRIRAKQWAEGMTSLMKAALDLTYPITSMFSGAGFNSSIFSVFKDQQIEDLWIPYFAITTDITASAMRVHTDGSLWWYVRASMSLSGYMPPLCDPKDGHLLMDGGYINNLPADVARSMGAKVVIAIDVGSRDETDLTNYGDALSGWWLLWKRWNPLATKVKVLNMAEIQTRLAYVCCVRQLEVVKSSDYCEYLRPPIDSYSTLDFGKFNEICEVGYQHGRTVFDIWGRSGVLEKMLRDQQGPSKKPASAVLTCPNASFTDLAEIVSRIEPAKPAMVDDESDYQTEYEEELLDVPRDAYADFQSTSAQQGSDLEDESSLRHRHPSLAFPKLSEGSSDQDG

lipolysis by ATGL = details: in vitro; cited from earlier work

Structure (SMILES): CN(C)C(=O)Nc1cccc(-c2ccc(N(C)C)cc2)c1 [Atglistatin, N′-[4′-(dimethylamino) [1,1′-biphenyl]-3-yl]-N,N-dimethyl-urea]
- inhibition of hormone-sensitive lipase (hormone-sensitive lipase): does not inhibit
- inhibition of PNPLA6 (PNPLA6): does not inhibit
- inhibition of PNPLA7 (PNPLA7): does not inhibit
- lipolysis by ATGL (fatty acid mobilization) (lipolysis by ATGL): blocks lipolysis
